From patent publication US11447485B2, “Class of bifunctional compounds with quanternary ammonium salt structure” (Beijing Showby Pharmaceutical Co., Ltd., priority 2016, dated 2022)
Where two headings read alike, the source gives them in different places.

What was measured:
[1] = tested on: tracheal smooth muscle of guinea pig; assay: Relaxation of CCh-induced constriction of isolated guinea pig tracheal smooth muscle (Experimental Example 1); settings: for EC50: Cavia porcellus, read-out: EC50 (μM) ± SD
Description: The upper end was connected with a muscle tension transducer, and the specimen was given a resting tension of 1.0 g. Muscle tension changes were recorded, nutrient solution was changed every 20 min, and the experiment was started after 60 min of equilibrium.
Administration Method: After the trachea flake were stabilized, 3×10^−6 mol/L CCh was added to the bath. […] Diastolic condition of the trachea flake was observed. If no response occurred (below the threshold concentration), the next dosage was continued to be added in the order. If any response occurred, the next dosage was added until its diastolic platform was reached. The above operation was repeated until the shrink curve reached the minimum. Finally, 10^−6 mol/L isoproterenol was added to establish maximum relaxation, and the curve was recorded.
Statistical Methods: Statistics was performed using the Sigma Stat statistical software package, the data was analyzed by using the variance analysis. Student-Newman-Keuls (SNK) test was used in comparison among multiple sample averages number. The statistical test level was α=0.05 (bilateral).

[2] = biological target: T1, human recombinant β2 adrenoceptor (Homo sapiens, UniProt P07550); assay: cell-based; assay type: cell-based; settings: EC50 (β1)/EC50 (β2)
T1 construct: expressed in transfected cells
T1 sequence (P07550 whole entry): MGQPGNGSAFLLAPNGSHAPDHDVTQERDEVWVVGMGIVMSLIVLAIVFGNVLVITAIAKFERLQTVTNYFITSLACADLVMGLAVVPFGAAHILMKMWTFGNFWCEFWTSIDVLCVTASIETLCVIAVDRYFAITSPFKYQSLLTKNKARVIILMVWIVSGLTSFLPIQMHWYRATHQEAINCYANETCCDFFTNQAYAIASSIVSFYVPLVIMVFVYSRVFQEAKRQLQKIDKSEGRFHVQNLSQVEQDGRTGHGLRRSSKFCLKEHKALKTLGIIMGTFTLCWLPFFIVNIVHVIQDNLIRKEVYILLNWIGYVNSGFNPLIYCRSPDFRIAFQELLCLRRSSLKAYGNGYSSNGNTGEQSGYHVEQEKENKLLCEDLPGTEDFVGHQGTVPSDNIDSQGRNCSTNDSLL

| Structure (SMILES) | Time for eliminating inhibition effect (min) ([1]; CCh 3 × 10^−6 mol/L, in vitro) | EC50 [1] [µM] | sel (β1/β2) [2] | Onset time (min) ± SD ([1]; CCh 3 × 10^−6 mol/L, in vitro) [min] | Time for eliminating inhibition effect ([1]; CCh 3 × 10^−6 mol/L, in vitro) [min] | Time for eliminating inhibition effect (min) ([1]; CCh 3 × 10^−6 mol/L, in vitro, listed as ipratropium bromide) | EC50 ([1]; constriction induced by CCh 3 × 10^−6 mol/L, in vitro) [µM] |
| --- | --- | --- | --- | --- | --- | --- | --- |
| O=c1ccc2c([C@@H](O)CNCCC[N+]34CCC(CC3)[C@@H](OC[C@@](O)(c3ccccc3)C3CCCC3)C4)ccc(O)c2[nH]1 [Compound 2, (R)-(−)-3-[(R)-2-hydroxy-2-cyclopentyl-2-phenyl]ethoxy-1-(3-{(R)-[2-hydroxy-2-(8-hydroxy-2-oxo-1,2-dihydroquinolin-5-yl)]ethylamino}propyl)-1-azabicyclo[2,2,2]octylonium bromide] | more than 300 min | 0.756 ± 0.26 | 7.8 | – | – | – | – |
| O=CNc1cc([C@@H](O)CNCCCC[N+]23CCC(CC2)[C@@H](OC[C@@](O)(c2ccccc2)C2CCCC2)C3)ccc1O [Compound 4, (R)-(−)-3-[(R)-2-hydroxy-2-cyclopentyl-2-phenyl]ethoxy-1-(4-{(R)-[2-hydroxy-2-(3-formamido-4-hydroxy)phenyl]ethylamino}butyl-1-azabicyclo[2,2,2]octylonium bromide] | more than 300 min | 0.0358 ± 0.011 | 36.8 | 6.23 ± 0.23 | – | – | – |
| O=CNc1cc([C@@H](O)CNCCCCOCC[N+]23CCC(CC2)[C@@H](OC[C@@](O)(c2ccccc2)C2CCCC2)C3)ccc1O [Compound 25, (R)-(−)-3-[(R)-2-hydroxy-2-cyclopentyl-2-phenyl]ethoxy-1-[2-(4-{(R)-[2-hydroxy-2-(3-formamido-4-hydroxy)phenyl]ethylamino}butoxy)ethyl]-1-azabicyclo[2,2,2]octylonium bromide] | more than 300 min | 0.822 ± 0.27 | 30.8 | 6.86 ± 0.22 | – | – | – |
| O=C1COc2c(cc(O)cc2C(O)CNCCCCOCCCCC[N+]23CCC(CC2)C(OCC(O)(c2ccccc2)C2CCCC2)C3)N1 [Compound 26, (R)-(−)-3-[(R)-2-hydroxy-2-cyclopentyl-2-phenyl]ethoxy-1-[5-(4-{(R)-[2-hydroxy-2-(6-hydroxy-2H-1,4-benzoxazin-3(4H)-one-8-yl)]ethylamino}butoxy)pentyl]-1-azabicyclo[2,2,2]octylonium bromide] | more than 300 min | 0.087 ± 0.021 | 18.8 | 6.56 ± 0.65 | – | – | – |
| OCc1cc(C(O)CNCCCCOCCCC[N+]23CCC(CC2)C(OCC(O)(c2ccccc2)C2CCCC2)C3)ccc1O [Compound 27, (R)-(−)-3-[(R)-2-hydroxy-2-cyclopentyl-2-phenyl]ethoxy-1-[4-(4-{(R)-[2-(3-hydroxymethyl-4-hydroxy)phenyl-2-hydroxy]ethylamino}butoxy)butyl-1-azabicyclo[2,2,2]octylonium bromide] | more than 300 min | 0.152 ± 0.086 | 78.9 | 5.54 ± 0.43 | – | – | – |
| OCc1cc(C(O)CNCCOCCOCCOCC[N+]23CCC(CC2)C(OCC(O)(c2ccccc2)C2CCCC2)C3)ccc1O [Compound 45, (R)-(−)-3-[(R)-2-hydroxy-2-cyclopentyl-2-phenyl]ethoxy-1-(2-{2-[2-(2-{(R)-[2-(3-hydroxymethyl-4-hydroxy)phenyl-2-hydroxy]ethylamino}ethoxy)ethoxy]ethoxy}ethyl)-1-azabicyclo[2,2,2]octylonium bromide] | more than 300 min | 0.0278 ± 0.0091 | 120.3 | 6.39 ± 0.56 | – | – | – |
| O=CNc1cc(C(O)CNCCOCCOCC[N+]23CCC(CC2)C(OCC(O)(c2ccccc2)C2CCCC2)C3)ccc1O [Compound 46, (R)-(−)-3-[(R)-2-hydroxy-2-cyclopentyl-2-phenyl]ethoxy-1-{2-[2-(2-{(R)-[2-hydroxy-2-(3-formamido-4-hydroxy)phenyl]ethylamino}ethoxy)ethoxy]ethyl}-1-azabicyclo[2,2,2]octylonium chloride] | more than 300 min | 0.136 ± 0.068 | 68.9 | 6.75 ± 0.33 | – | – | – |
| O=c1ccc2c([C@@H](O)CNCCOCCOCC[N+]34CCC(CC3)[C@@H](OC[C@@](O)(c3ccccc3)C3CCCC3)C4)ccc(O)c2[nH]1.[Cl-] [Compound 50] | more than 300 min | 0.0135 ± 0.0092 | 56.9 | 6.76 ± 0.32 | – | – | – |
| OCc1cc([C@@H](O)CNCCc2ccc(OCC[N+]34CCC(CC3)[C@@H](OC[C@@](O)(c3ccccc3)C3CCCC3)C4)cc2)ccc1O [Compound 57, (R)-(−)-3-[(R)-2-hydroxy-2-cyclopentyl-2-phenyl)]ethoxy-1-{2-[4-(2-{[(R)-[2-(3-hydroxymethyl-4-hydroxy)phenyl-2-hydroxy]ethylamino}ethyl)phenoxy]ethyl}-1-azabicyclo[2,2,2]octylonium bromide] | more than 300 min | 0.0265 ± 0.016 | 68.8 | 6.03 ± 0.18 | – | – | – |
| O=c1ccc2c([C@@H](O)CNCc3ccc(OCCC[N+]45CCC(CC4)[C@@H](OC[C@@](O)(c4ccccc4)C4CCCC4)C5)cc3)ccc(O)c2[nH]1 [Compound 58, (R)-(−)-3-[(R)-2-hydroxy-2-cyclopentyl-2-phenyl]ethoxy-1-{3-[4-(1-{(R)-[2-hydroxy-2-(8-hydroxy-2-oxo-1,2-dihydroquinolin-5-yl)]ethylamino}methyl)phenoxy]propyl}-1-azabicyclo[2,2,2]octylonium bromide] | more than 300 min | 0.0131 ± 0.0088 | 89.8 | 5.56 ± 0.24 | – | – | – |
| CC(C)(Cc1ccc(OCC[N+]23CCC(CC2)[C@@H](OC[C@@](O)(c2ccccc2)C2CCCC2)C3)cc1)NC[C@H](O)c1cc(O)cc2c1OCC(=O)N2 [Compound 60, (R)-(−)-3-[(R)-2-hydroxy-2-cyclopentyl-2-phenyl]ethoxy-1-{2-[4-(2-{(R)[-2-hydroxy-2-(6-hydroxy-2H-1,4-benzoxazin-3(4H)-one-8-yl)]ethylamino}isobutyl)phenoxy]ethyl}-1-azabicyclo[2,2,2]octylonium bromide] | more than 300 min | 0.0523 ± 0.018 | 12.3 | 6.59 ± 0.43 | – | – | – |
| CCC(NC[C@H](O)c1ccc(O)c2[nH]c(=O)ccc12)c1ccc(OCCC[N+]23CCC(CC2)[C@@H](OC[C@@](O)(c2ccccc2)C2CCCC2)C3)cc1 (stereo partly drawn) [Compound 62, (R)-(−)-3-[(R)-2-hydroxy-2-cyclopentyl-2-phenyl]ethoxy-1-{3-[4-(1-{(R)-[2-hydroxy-2-(8-hydroxy-2-oxo-1,2-dihydroquinolin-5-yl)]ethylamino}propylidene)phenoxy]propyl}-1-azabicyclo[2,2,2]octylonium bromide] | more than 300 min | 0.0351 ± 0.01 | 126.7 | 7.02 ± 0.22 | – | – | – |
| CC(C)(NC[C@H](O)c1ccc(O)c(CO)c1)c1ccc(OCCC[N+]23CCC(CC2)[C@@H](OC[C@@](O)(c2ccccc2)C2CCCC2)C3)cc1.[Br-] [Compound 71] | more than 300 min | 0.019 ± 0.0061 | 468.2 | 6.92 ± 0.26 | – | – | – |
| CC(Cc1ccc(OCC[N+]23CCC(CC2)[C@@H](OC[C@@](O)(c2ccccc2)C2CCCC2)C3)cc1)NC[C@H](O)c1ccc(O)c(CO)c1.[Br-] (stereo partly drawn) [Compound 75] | more than 300 min | 0.176 ± 0.031 | 56.8 | 6.38 ± 0.35 | – | – | – |
| O=c1ccc2c([C@@H](O)CNCCc3ccc(OCCC[N+]45CCC(CC4)[C@@H](OC[C@@](O)(c4ccc(Cl)cc4)C4CCCC4)C5)cc3)ccc(O)c2[nH]1.[Br-] [Compound 78] | more than 300 min | 0.0137 ± 0.0078 | 108.6 | 6.48 ± 0.38 | – | – | – |
| CC(C)(NC[C@H](O)c1ccc(O)c2[nH]c(=O)ccc12)c1ccc(OCCC[N+]23CCC(CC2)[C@@H](OC[C@@](O)(c2ccccc2)C2CCCC2)C3)cc1 [Compound 84] | more than 300 min | 0.0251 ± 0.0086 | 238.8 | 6.78 ± 0.18 | – | – | – |
| CCC(NC[C@H](O)c1ccc(O)c(NC=O)c1)c1ccc(OCCC[N+]23CCC(CC2)[C@@H](OC[C@@](O)(c2ccccc2)C2CCCC2)C3)cc1.[Br-] (stereo partly drawn) [Compound 97] | more than 300 min | 0.0167 ± 0.0062 | 56.7 | 6.36 ± 0.22 | – | – | – |
| O=C1COc2c(cc(O)cc2[C@@H](O)CNCc2ccc(OCCC[N+]34CCC(CC3)[C@@H](OC[C@@](O)(c3ccccc3)C3CCCC3)C4)cc2)N1 [Compound 102] | more than 300 min | 0.0371 ± 0.019 | 102.6 | 5.78 ± 0.23 | – | – | – |
| CC(C)[N+]1(C)[C@@H]2CC[C@H]1C[C@@H](OC(=O)C(CO)c1ccccc1)C2 (stereo partly drawn) [Ipratropium bromide, ipratropium bromide, reference compound] | – | – | – | 6.82 ± 0.28 | 185 | short duration of action | 0.0361 ± 0.0046 |
